Reference: patent US9005922B2, “Sensor chip for screening topoisomerase inhibitor and screening method thereof” (Taipei Medical University, priority 2010, dated 2015)

Assays:
[1] = target: T1, hTopI-DNA cleavage complex (Homo sapiens, UniProt P11387); assay: SPR assay on sensor chip with immobilized hTop I, inhibitor together with pUC19 plasmid DNA in analytes; assay type: binding
T1 construct: made in house
T1 sequence (P11387 1-765): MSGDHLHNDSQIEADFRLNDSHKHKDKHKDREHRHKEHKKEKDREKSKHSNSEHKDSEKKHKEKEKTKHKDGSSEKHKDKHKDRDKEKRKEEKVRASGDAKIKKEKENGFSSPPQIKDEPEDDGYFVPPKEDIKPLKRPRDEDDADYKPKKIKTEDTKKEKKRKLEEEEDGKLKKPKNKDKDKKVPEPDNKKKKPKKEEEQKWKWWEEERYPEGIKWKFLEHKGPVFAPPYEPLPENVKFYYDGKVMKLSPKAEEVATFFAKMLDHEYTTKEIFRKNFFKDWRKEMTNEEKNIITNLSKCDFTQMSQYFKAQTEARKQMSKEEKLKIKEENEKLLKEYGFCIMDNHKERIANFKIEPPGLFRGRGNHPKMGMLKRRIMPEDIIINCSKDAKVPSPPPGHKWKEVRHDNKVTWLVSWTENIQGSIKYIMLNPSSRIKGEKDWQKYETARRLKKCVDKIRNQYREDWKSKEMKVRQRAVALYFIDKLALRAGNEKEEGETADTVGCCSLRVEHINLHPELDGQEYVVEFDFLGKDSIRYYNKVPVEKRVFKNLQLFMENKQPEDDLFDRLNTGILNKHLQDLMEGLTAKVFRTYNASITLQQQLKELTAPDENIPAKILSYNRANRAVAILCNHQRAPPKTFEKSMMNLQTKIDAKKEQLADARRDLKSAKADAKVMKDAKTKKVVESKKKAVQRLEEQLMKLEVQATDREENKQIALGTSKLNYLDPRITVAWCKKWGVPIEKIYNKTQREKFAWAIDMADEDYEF
Method: (§1) Briefly, the surface of the micro-fluid chip is activated with 0.05-0.5 M N-hydroxysuccinimide and 0.1-0.5 M N-ethyl-N′-(3-dimethylaminopropyl) carbodiimimide at a flow rate of 25 μL/min. The hTop I is diluted in 10 mM sodium acetate and adjusted pH values to pH 3.0-10.0, preferably to pH 5.0-8.5, especially to pH 7.5. The hTop I is immobilized on the micro-fluid chip at 20-40[…] (preferably at 25[…]) using a flow rate of 10-40 μL/min (preferably 25-30 μL/min, specially 25 μL/min) for 60-300 seconds (preferably 200-300 seconds), and therefore the contents of the hTop I are about 20-150 μL. Activated amine groups are quenched with injecting 1 M ethanolamine (pH 7.0-9.0). Recombinant hTop I was covalently coupled to the carboxymethylated dextran surface of the chip using standard amine-coupling chemistry.
To characterize the drug-binding kinetics using the SPR sensor chip, plasmid DNA (1.0 μg/ml) is included in the analytes. […] The interaction causes an increase in the higher the mass of ligands immobilized on the micro-fluid chip, and is reflected in a rise in RUs.

[2] = target: T2, recombinant human topoisomerase I (hTop I) (Homo sapiens, UniProt P11387); assay: Gel electrophoresis assay of pUC19 supercoiled DNA relaxation by hTop I; assay type: biochemical; conditions: pUC19 plasmid DNA with hTop I, agarose gel, CPT 2-8 μM, FIG. 4 lanes 3-6
T2 construct: made in house
T2 sequence (P11387 1-765): T1 sequence (P11387 1-765)
Source text: The pUC19 plasmid DNA is closely circular double-stranded supercoiled DNA. When the pUC19 plasmid DNA is interacted with the Top I, one strand of the circular double-stranded supercoiled DNA is cleaved, separated and religated to form a relaxed form. A gel electrophoresis assay is used to evaluate the conformational change of pUC19 plasmid DNA.

immobilized hTop I = target: T3, immobilized hTop I (Homo sapiens, UniProt P11387); assay: SPR assay on sensor chip with immobilized hTop I, inhibitor alone without DNA in analytes; assay type: binding; conditions: CPT alone 0-250 nM, no DNA in analytes, FIG. 8
T3 construct: made in house
T3 sequence (P11387 1-765): T1 sequence (P11387 1-765)
Method: as §1
[…] […] The interaction causes an increase in the higher the mass of ligands immobilized on the micro-fluid chip, and is reflected in a rise in RUs.

[3] = pUC19 plasmid DNA 1.0 μg/ml plus CPT, compared to DNA only, ProteOn Manager 2.0 calculation

Compound | binding to hTop I immobilized on the micro-fluid chip ([1]; VP-16 and pUC19 plasmid DNA loaded simultaneously) | inhibitory effect on hTop I relaxation activity (supercoiled DNA retained) [2] | binding to hTop I (RU values) (immobilized hTop I) | RU response (binding) ([1]; pUC19 plasmid DNA 1.0 μg/ml plus CPT 0, 62.5, 125 and 250 nM, FIG. 9) | Ka [1, 3] | Kd [1, 3]
COc1cc([C@@H]2c3cc4c(cc3[C@@H](O[C@@H]3O[C@@H]5CO[C@@H](C)O[C@H]5[C@H](O)[C@H]3O)[C@H]3COC(=O)[C@H]23)OCO4)cc(OC)c1O [VP-16, etoposide] | does not bind to the hTop I |  |  |  |  | 
CC[C@@]1(O)C(=O)OCc2c1cc1n(c2=O)Cc2cc3ccccc3nc2-1 [CPT, camptothecin] |  | inhibited hTop I relaxation activity | does not bind to hTopI without DNA | RU increases in a concentration-dependent manner | 9.11×10^7 | 3.74×10^−21
